Values of other authors in patent publication US20090239285A1, “TANDEM REAPEAT DNA CONSTRUCTS PRODUCING PROTEINS THAT ATTACK PLANT PATHOGENIC VIRUSES, FUNGI, AND BACTERIA BY DISRUPTING TRANSCRIPTION FACTORS ESSENTIAL FOR REPLICATION THEREOF IN PLANTS” (priority 2008, published 2009).

System: rice blast fungus Magnaporthe grisea
Conditions: PA treated plants; doses in range 0.5 mg/mL; cited from earlier work

## O=C(O)c1ccccn1 [Picolinic acid, 2-pyridine carboxylic acid]
  resistance against M. grisea: enhanced
